Data as given in BindingDB's records for doi:10.1021/jm049581j (Purdue University, 2005).

Target: T1, Gag-Pol polyprotein [489-587] (Human immunodeficiency virus 1, UniProt P04585)
T1 construct: 489-587
Assay: Inhibitory concentration against human immunodeficiency virus-1 protease; (Dimerization inhibitor)

Q: For CC[C@@H](C)[C@H](NC(=O)[C@H](CCC(N)=O)NC(=O)C1CCCN1C(=O)CCCCCCCCCCCCCCC(=O)N[C@@H](CO)C(=O)N[C@H](C(=O)N[C@@H](CC(C)C)C(=O)N[C@@H](CC(N)=O)C(=O)N[C@@H](Cc1ccccc1)C(=O)O)[C@H](C)O)C(=O)N[C@H](C(=O)N[C@@H](CC(C)C)C(=O)N[C@@H](Cc1c[nH]c2ccccc12)C(=O)O)[C@H](C)O (some centres not stated), which IC50 is on record?
A: Its IC50 is 350 nM.

Q: What about the Ki of the same compound?
A: The Ki was 220 nM.
